Assay: in vitro
Conditions: human, hela cells, % viability

SMILES	viability at 28.5 h, 10 µM [%]	viability at 28.5 h, 10 µM (bulk resorufin, single well) [%]
Cc1cc(COc2nc3ccccc3nc2NC(C)C(C)C)no1 (stereo not drawn) [CBK174007]	117	
CCc1nn(CC(=O)NC2CCC2)c(=O)c2cc3sc(C)cc3n12 [CBK284142]	92.4	
C=C(C)CN1CCN(C(=O)c2ccnc3ccc(Cl)cc23)CC1 [CBK282617]	111	
CCOC(=O)C1(Cc2cc(-c3cccc(F)c3)no2)CCCNC1 (stereo not drawn) [CBK284578]	87.3	
CC(C)(C)C(=O)N1CC[C@H]2NC(=O)N(c3ccc(F)cc3)C(=O)[C@H]21 [CBK289328]	86.4	
Clc1cc(Nc2ccc3[nH]ccc3c2)n2nccc2n1 [CBK037009]	84.7	
Cc1ccc(CCP(=O)(O)CN2CCOCC2)cn1 [CBK022176]	109	
CNC(=O)c1sc2ccccc2c1C1CCN(S(=O)(=O)c2ccc(C)c(C)c2)C1 (stereo not drawn) [CBK285877]	85.8	
OCCOCCN1CCN(C(S)=Nc2ccccc2)CC1 [CBK018046]	84.7	
CN(C)CCN(Cc1ccccc1)C(=O)NCc1cccnc1 [CBK145048]	89.6	
CN1C(=O)COc2ccccc2CCCC[C@@H]2[C@H]1CCCN2C(=O)Cn1ccnc1 [CBK292152]	110	
CS(=O)(=O)N(CC(=O)Nc1ccc(S(N)(=O)=O)cc1)Cc1ccc(Cl)cc1 [CBK267512]	98.8	
Cc1nccn1CC(=O)N1CCCC(C)(C(=O)NC2CCCC2)C1 (stereo not drawn) [CBK282210]	91.8	
Fc1ccc(-c2ccc3c(c2)COC2(CCNCC2)O3)cc1Cl [CBK060960]		89.8
CCOc1cc(S(=O)(=O)NCc2ccccn2)ccc1Cl [CBK266817]	99.2	
O=C(c1cc(F)c(F)cc1F)N1CCC2(CCCN(C(=O)c3cccc4[nH]ccc34)C2)C1 (stereo not drawn) [CBK131544]	97.3	
CCN(Cc1ccncc1)C(=O)NCc1cc(C)on1 [CBK155122]	85.2	
Oc1c(CN2CCOCC2)ccc(CN2CCOCC2)c1O [CBK269979]	100	

SMILES	viability at 28.5 h, 10 µM [%]	viability at 28.5 h, 10 µM (bulk resorufin, single well) [%]
O=C1CSC(c2ccc(F)cc2Cl)c2c[nH]nc2N1 (stereo not drawn) [CBK287935]	91.4	
Cc1cc(C)nc(N2CCC(c3cc(CCOc4ccc(C(F)(F)F)cc4)[nH]n3)C2)n1 (stereo not drawn) [CBK286073]	93.5	
O=C(c1cc(F)c(F)cc1F)N1CCC2(CCCN(Cc3ccc4ccccc4c3)C2)C1 (stereo not drawn) [CBK131998]	97.8	
CCCC(=O)N1CCC(c2nnc(-c3ccsc3)o2)CC1 [CBK283377]	85.5	
Cc1c(O)ccc2c(COC(=O)C3(c4ccccc4)CCCC3)cc(=O)oc12 [CBK295622]	98.8	
C=C(C)Cn1c(SCC(C)C)nnc1-c1ccccc1OC(F)(F)F [CBK200080]	97.7	
Clc1ccc(-c2nc(-c3ccncc3)no2)c(Cl)c1 [CBK262615]	83.6	
Cc1cc2c(cc3c(=O)n(CC(=O)N4CCCCCC4)nc(C)n32)o1 [CBK283591]	103	
COc1ccc(-c2noc([C@@H]3Cc4[nH]cnc4CN3C(=O)Nc3ccc(C)cc3)n2)cc1 [CBK288968]	92.9	
O=C1CCc2cc(S(=O)(=O)NC(c3ccccc3)c3ccccc3)ccc2N1 [CBK286367]	93.4	
Cc1ccc(CN(Cc2cncn2C)CC2CCCO2)o1 (stereo not drawn) [CBK283272]	93.2	
O=C(O)c1ccc(NC(=O)c2cc(S(=O)(=O)N3CCCCC3)cs2)cc1 [CBK265722]	101	
CCn1cnc2cc(NC(=O)C3CC4C=CC3C43CC3)ccc21 (stereo not drawn) [CBK281384]	73.8	
COc1ccc(-c2nc(NC(=O)c3cnccn3)cnc2-c2ccc(F)cc2)cc1 [CBK037150]	104	
CN(Cc1ccccc1)c1nccnc1-c1ccc(CO)cc1 [CBK038067]	101	
O=C(O)CSc1nc2ccc([N+](=O)[O-])cc2s1 [CBK262232]	88.4	
COC(=O)c1c(NC(=S)NCCn2cc(Br)cn2)sc2c1CCC2 [CBK266905]	98.2	
Nc1ncc(-c2ccccc2)nc1NCc1cccnc1 [CBK063452]	116	
